Data as given in paper PMC8948797 (International Journal of Molecular Sciences, 2022).

Test system: hALN
Assay: cytoplasmic calcium measurements (Fluo-8) in hALN
Assay type: cell-based, human
Conditions: 50 mM KCl, 21–30-day-old hALN, Figure S2
From the text: Figure 3 Characterization of the hALN. (A) 1 s-long depolarizing, and hyperpolarizing pulses injected into a hALN neuron. […] (E) Representative image of Fluo-8-loaded cells and region of interest for individual cells for intensity measurements (white line). […] Data are presented as fluorescence intensity in arbitrary units.
To test the effect of NPFFR2 on the cytoplasmic calcium dynamics, we measured intracellular calcium concentrations using hALNs loaded with Fluo-8. Typically, neurons display calcium oscillations with synchronized patterns, as cells become mature and capable of forming electrical connections with one another. We first recorded basal spontaneous activity in 21–30-day old hALNs and observed synchronized calcium oscillations in 30–70% of cells (Figure 3D–F).
In 8 ± 3% cells, we detected no change, and the remaining 13 ± 5% cells increased their oscillation rate (n = 12).
Cytosolic (Ca2+)i was measured using Ca^2+ indicator Fluo-8. […] Baseline signal was measured at 488 nm excitation and 510 nm emission using inCell analyzer 2000 for 5 min. […] After the background subtraction, calcium responses were processed and analyzed using ImageJ. Mean intensity over time was measured in ROIs including cytoplasmic soma area of individual cells and their traceable extensions. […] Data are presented as fluorescence intensity in arbitrary units. […]

Compound: [Cl-].[K+] [KCl]
- cytoplasmic calcium response to KCl: induced a cytoplasmic calcium transient increase
